Measured values taken from patent US9133235B2, “Macrocyclic antagonists of the motilin receptor for treatment of gastrointestinal dysmotility disorders” (Ocera Therapeutics, Inc., priority 2006, dated 2015).
Read-outs that look alike come from different tables or passages of the source.

Assays:
human motilin receptor = human motilin receptor (Homo sapiens, UniProt O43193); assay: Competitive radioligand binding assay (motilin receptor); design: purchased PerkinElmer (SignalScreen) 6110544; host or cells: CHO cells, stably transfected; membranes
Chain of human motilin receptor (O43193 whole entry): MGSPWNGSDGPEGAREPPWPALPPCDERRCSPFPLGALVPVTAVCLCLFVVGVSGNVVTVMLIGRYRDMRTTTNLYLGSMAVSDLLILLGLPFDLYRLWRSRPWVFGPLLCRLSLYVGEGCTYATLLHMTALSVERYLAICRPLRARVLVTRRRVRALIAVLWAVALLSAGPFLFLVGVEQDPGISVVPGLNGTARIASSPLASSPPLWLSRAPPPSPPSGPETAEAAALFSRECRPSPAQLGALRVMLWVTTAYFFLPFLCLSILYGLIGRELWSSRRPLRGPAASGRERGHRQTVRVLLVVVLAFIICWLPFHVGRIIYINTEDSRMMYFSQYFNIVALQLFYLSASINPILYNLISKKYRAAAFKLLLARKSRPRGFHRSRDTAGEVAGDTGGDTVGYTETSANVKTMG
Outline: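 Membranes from CHO cells stably expressing human motilin receptor were incubated 2 h at room temperature with [125I]-motilin (0.04-0.06 nM final) and compound (0.0050–10 μM) in Tris-HCl pH 7.4, MgCl2, EDTA, 0.1% BSA. Filter-bound counts were measured; 1 μM motilin defined non-specific binding; variable-slope non-linear regression.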

CYP2C8 = molecular target: T1, CYP2C8 (Homo sapiens, UniProt P10632); assay: Cytochrome P450 inhibition, CYP2C8; format: in vitro ADME; conditions: Supersomes; read-out: IC50 (μM) 2C8
T1 construct: purchased BD Gentest, Becton-Dickinson (Supersomes); host or cells: insect cells (microsomes)
T1 sequence (P10632 1-490): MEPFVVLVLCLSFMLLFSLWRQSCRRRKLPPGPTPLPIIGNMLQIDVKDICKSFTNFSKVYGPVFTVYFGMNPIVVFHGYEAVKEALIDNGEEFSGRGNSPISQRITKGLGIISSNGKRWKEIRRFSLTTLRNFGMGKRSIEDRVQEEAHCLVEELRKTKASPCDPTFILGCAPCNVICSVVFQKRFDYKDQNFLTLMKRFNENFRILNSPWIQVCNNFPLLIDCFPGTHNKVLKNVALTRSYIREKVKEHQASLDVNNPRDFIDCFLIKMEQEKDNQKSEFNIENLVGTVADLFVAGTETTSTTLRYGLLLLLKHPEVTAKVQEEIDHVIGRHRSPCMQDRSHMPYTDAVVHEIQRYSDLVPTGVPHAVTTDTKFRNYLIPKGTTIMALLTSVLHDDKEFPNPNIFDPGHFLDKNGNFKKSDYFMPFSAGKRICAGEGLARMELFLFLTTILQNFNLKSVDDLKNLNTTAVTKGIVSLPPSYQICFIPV
Source text: (§1) F. Assay for Cytochrome P450 Inhibition
(§2) Cytochrome P450 enzymes are implicated in the phase I metabolism of drugs. The majority of drug-drug interactions are metabolism-based and, moreover, these interactions typically involve inhibition of cytochrome P450s. Six CYP450 enzymes (CYP1A2, CYP2C8, CYP2C9, CYP2C19, CYP2D6 and CYP3A4) appear to be commonly responsible for the metabolism of most drugs and the associated drug-drug interactions. Assays to determine the binding of compounds of the invention to the various metabolically important isoforms of cytochrome P450 metabolizing enzymes are commercially available, for example NoAb BioDiscoveries (Mississaugua, ON, Canada) and Absorption Systems (Exton, Pa., USA). As well, a number of appropriate methods have been described or reviewed in the literature. (White, R. E. Ann. Rev. Pharmacol. Toxicol. 2000, 40, 133-157; Li, A. P. Drug. Disc. Today 2001, 6, 357-366; Turpeinen, M.; Korhonen, L. E. Tolonen, A.; et al. Eur. J. Pharm. Sci. 2006, 29, 130-138.)
(§3) The concentration of the inhibitor or test compound that inhibited metabolite formation by 50% (IC50) was calculated by non-linear regression analysis of the % inhibition vs. log concentration (M) curve.

CYP2D6 = molecular target: T2, CYP2D6 (Homo sapiens, UniProt P10635); assay: Cytochrome P450 inhibition, CYP2D6; format: in vitro ADME; conditions: Supersomes; read-out: IC50 (μM) 2D6
T2 construct: purchased BD Gentest, Becton-Dickinson (Supersomes); host or cells: insect cells (microsomes)
T2 sequence (P10635 whole entry): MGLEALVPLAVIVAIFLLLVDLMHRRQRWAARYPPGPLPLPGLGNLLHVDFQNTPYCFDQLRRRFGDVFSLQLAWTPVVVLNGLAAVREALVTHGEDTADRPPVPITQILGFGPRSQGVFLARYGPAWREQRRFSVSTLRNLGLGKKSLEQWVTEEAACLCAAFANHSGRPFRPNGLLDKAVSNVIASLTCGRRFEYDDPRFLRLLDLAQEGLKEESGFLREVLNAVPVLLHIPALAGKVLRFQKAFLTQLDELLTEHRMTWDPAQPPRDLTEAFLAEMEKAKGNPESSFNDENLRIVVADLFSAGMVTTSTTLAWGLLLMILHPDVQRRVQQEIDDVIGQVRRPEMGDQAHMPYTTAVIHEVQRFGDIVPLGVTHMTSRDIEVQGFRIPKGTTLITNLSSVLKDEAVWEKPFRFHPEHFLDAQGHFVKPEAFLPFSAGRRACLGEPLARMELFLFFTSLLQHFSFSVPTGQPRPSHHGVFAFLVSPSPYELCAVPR
Source text: as §1, §2, §3

[1] = [125I]-motilin competition, membranes of CHO cells with human motilin receptor, read-out: Ki

Structure (SMILES): CC(C)[C@H]1NC(=O)[C@@H](Cc2cccc(C(F)(F)F)c2)NCCOc2ccccc2CCCNC(=O)[C@H](CN(C)C)NC1=O [Compound 502]
- Ki (human motilin receptor; Table 7, read-out: Binding Ki): ≤ 0.01 µM

Structure (SMILES): CCC[C@@H]1NC(=O)[C@@H](C(C)C)NC(=O)[C@@H](Cc2cccc(F)c2)N[C@@H](C)COc2ccccc2CCCNC1=O [Compound 551]
- IC50 (CYP2C8): > 100 µM
- IC50 (CYP2D6): 30.1 µM
- Ki (human motilin receptor; Table 7, read-out: Binding Ki): ≤ 0.01 µM
- Ki (human motilin receptor; [1]): ≤ 0.01 µM

Structure (SMILES): CCC[C@@H]1NC(=O)[C@@H](C(C)C)NC(=O)[C@@H](Cc2ccc(O)c(Cl)c2)N[C@@H](C)COc2ccccc2CCCNC1=O [Compound 552]
- Ki (human motilin receptor; [1]): ≤ 0.01 µM

Structure (SMILES): CCC[C@@H]1NC(=O)[C@@H](C(C)C)NC(=O)[C@@H](Cc2ccc(O)c(C(C)(C)C)c2)NCCOc2ccccc2CCCNC1=O [Compound 553]
- IC50 (CYP2C8): > 100 µM
- IC50 (CYP2D6): 80.8 µM
- Ki (human motilin receptor; Table 7, read-out: Binding Ki): ≤ 0.01 µM
- Ki (human motilin receptor; [1]): ≤ 0.01 µM
